Experimental data as given in patent US11396505B2, “Inhibitors of CaMKK2 and uses of same” (New York University, priority 2019, dated 2022).

Columns and labels:
CaMKK2 = CaMKK2 (Homo sapiens, UniProt Q96RR4); test: CaMKK1/2 biochemical assay, 32P radiometric kinase assay (CaMKK2); details: for inhibition at 10 µM: 10 μM compound, read-out: CaMKK2 % inhibition @ concentrations shown, 10 μM; for inhibition at 0.5 µM: 0.5 μM compound, read-out: CaMKK2 % inhibition @ concentrations shown, 0.5 μM; for inhibition at 0.2 µM: 0.2 μM compound, read-out: CaMKK2 % inhibition @ concentrations shown, 0.2 μM
Experimental: (§1) The following is an example of a CaMKK1/2-biochemical assay. Compounds were tested for CaMKK1/2 inhibition using a ^32P radiometric kinase assay as follows: A freshly prepared kinase reaction buffer (20 mM Hepes (pH 7.5), 10 mM MgCl2, 1 mM EGTA, 0.02% Brij35, 0.02 mg/ml BSA, 0.1 mM Na3VO4, 2 mM DTT, 1% DMSO) was treated with Myelin Basic Protein (final concentration=20 μM), CaCl2) (final concentration=1.5 mM), Calmodulin (final concentration=0.96 μM) and either CaMKK2 (final reaction concentration=120 nM) or CaMKK1 (final reaction concentration=150 nM) and gently mixed. Compounds were added as aliquots from 10 mM DMSO stock solutions such that the final compound concentration in the assay was either 10 μM, 0.5 μM or 0.2 μM. This mixture was allowed to incubate for 20 minutes at room temperature. ^32P-ATP (specific activity 10 μCi/μL) was added and the mixture was allowed to incubate for 2 hours at room temperature. The reaction mixture was spotted onto P81 ion exchange paper. The kinase activity was detected by the filter binding method.

CaMKK1 = CaMKK1 (Homo sapiens, UniProt Q8N5S9); test: CaMKK1/2 biochemical assay, 32P radiometric kinase assay (CaMKK1)
Experimental: as §1

Question: Which results are given for O=C(O)c1n[nH]c2ccc(N3CCOC3=O)cc12 [CL-628]?
Answer: Biochemical Data CaMKK2, inh @ 0.5 μM (CaMKK2): 22% inh @ 0.5 μM; Biochemical Data CaMKK1, inh @ 0.5 μM (CaMKK1): <5% inh @ 0.5 μM

Question: How did the “Biochemical Data CaMKK2, inh @ 0.5 μM” value (CaMKK2) turn out when CCOC(=O)c1n[nH]c2ccc(N3CCOC3=O)cc12 [CL-629] was run?
Answer: 20% inh @ 0.5 μM

Question: What about the “Biochemical Data CaMKK1, inh @ 0.5 μM” value (CaMKK1) of the same molecule?
Answer: <5% inh @ 0.5 μM

Question: With O=C1OCCN1c1ccc2[nH]nc(-c3cccc4ccccc34)c2c1 [CL-666] as the molecule, how does the “Biochemical Data CaMKK2, inh @ 0.2 μM” value (CaMKK2) read?
Answer: 15% inh @ 0.2 μM

Question: What about the “Biochemical Data CaMKK1, inh @ 0.2 μM” value (CaMKK1) of the same molecule?
Answer: <5% inh @ 0.2 μM

Question: What does the source list for O=C1OCCN1c1ccc2[nH]nc(-c3ccc4cc[nH]c4c3)c2c1 [CL-669]?
Answer: Biochemical Data CaMKK2, inh @ 0.2 μM (CaMKK2): 55% inh @ 0.2 μM; Biochemical Data CaMKK1, inh @ 0.2 μM (CaMKK1): <5% inh @ 0.2 μM

Question: For O=C1OCCN1c1ccc2[nH]nc(-c3coc4ccccc34)c2c1 [Example 1, 3-(3-(Benzofuran-3-yl)-1H-indazol-5-yl)oxazolidin-2-one], which inhibition at 10 µM (CaMKK2) is on record?
Answer: 72%

Question: With O=C1OCCN1c1ccc2[nH]nc(-c3cc4ccccc4o3)c2c1 [Example 2, 3-(3-(Benzofuran-2-yl)-1H-indazol-5-yl)oxazolidin-2-one] as the molecule, how does the inhibition at 10 µM (CaMKK2) read?
Answer: 98%

Question: And the IC50 (CaMKK1)?
Answer: 164 nM

Question: O=C1OCCN1c1ccc2[nH]nc(-n3ccnc3)c2c1 [Example 5, 3-(3-(1H-imidazol-1-yl)-1H-indazol-5-yl)oxazolidin-2-one] was tested. Which inhibition at 10 µM (CaMKK2) did it give?
Answer: 29%

Question: O=C1OCCN1c1ccc2[nH]nc(-c3ccccc3)c2c1 [Example 6, 3-(3-phenyl-1H-indazol-5-yl)oxazolidin-2-one] was tested. Which “Biochemical Data CaMKK2, inh @ 0.5 μM” value (CaMKK2) did it give?
Answer: 37% inh @ 0.5 μM

Question: And the inhibition at 0.5 µM (CaMKK2)?
Answer: 37%

Question: And the “Biochemical Data CaMKK1, inh @ 0.5 μM” value (CaMKK1)?
Answer: <5% inh @ 0.5 μM

Question: For O=C1OCCN1c1ccc2[nH]nc(-c3cccnc3)c2c1 [Example 7, 3-(3-(pyridin-3-yl)-1H-indazol-5-yl)oxazolidin-2-one], which “Biochemical Data CaMKK2, inh @ 0.5 μM” value (CaMKK2) is on record?
Answer: 29% inh @ 0.5 μM

Question: What about the inhibition at 0.5 µM (CaMKK2) of the same molecule?
Answer: 29%

Question: What about the “Biochemical Data CaMKK1, inh @ 0.5 μM” value (CaMKK1) of the same molecule?
Answer: <5% inh @ 0.5 μM

Question: What does the source list for C=Cc1n[nH]c2ccc(N3CCOC3=O)cc12 [Example 8, 3-(3-vinyl-1H-indazol-5-yl)oxazolidin-2-one]?
Answer: Biochemical Data CaMKK2, inh @ 0.5 μM (CaMKK2): 26% inh @ 0.5 μM; inhibition at 0.5 µM (CaMKK2): 26%; Biochemical Data CaMKK1, inh @ 0.5 μM (CaMKK1): 12% inh @ 0.5 μM

Question: For O=C1OCCN1c1ccc2[nH]nc(/C=C/c3ccccc3)c2c1 [Example 9, (E)-3-(3-styryl-1H-indazol-5-yl)oxazolidin-2-one], which inhibition at 0.5 µM (CaMKK2) is on record?
Answer: 89%

Question: How did the inhibition at 0.5 µM (CaMKK2) turn out when O=C1OCCN1c1ccc2[nH]nc(/C=C/c3cccnc3)c2c1 [Example 10, (E)-3-(3-(2-(pyridin-3-yl)vinyl)-1H-indazol-5-yl)oxazolidin-2-one] was run?
Answer: 72%

Question: For O=C1OCCN1c1ccc2[nH]nc(/C=C/c3ccncc3)c2c1 [Example 11, (E)-3-(3-(2-(pyridin-4-yl)vinyl)-1H-indazol-5-yl)oxazolidin-2-one], which inhibition at 0.5 µM (CaMKK2) is on record?
Answer: 80%

Question: With O=C1OCCN1c1ccc2[nH]nc(C#Cc3ccccn3)c2c1 [Example 12, 3-(3-(pyridin-2-ylethynyl)-1H-indazol-5-yl)oxazolidin-2-one] as the molecule, how does the “Biochemical Data CaMKK2, inh @ 0.5 μM” value (CaMKK2) read?
Answer: 52% inh @ 0.5 μM

Question: And the inhibition at 0.5 µM (CaMKK2)?
Answer: 52%

Question: And the “Biochemical Data CaMKK1, inh @ 0.5 μM” value (CaMKK1)?
Answer: 14% inh @ 0.5 μM

Question: O=C1OCCN1c1ccc2[nH]nc(-c3ccncc3)c2c1 [Example 13, 3-(3-(pyridin-4-yl)-1H-indazol-5-yl)oxazolidin-2-one] was tested. Which “Biochemical Data CaMKK2, inh @ 0.5 μM” value (CaMKK2) did it give?
Answer: 33% inh @ 0.5 μM

Question: What about the inhibition at 0.5 µM (CaMKK2) of the same molecule?
Answer: 33%

Question: What about the “Biochemical Data CaMKK1, inh @ 0.5 μM” value (CaMKK1) of the same molecule?
Answer: 7% inh @ 0.5 μM

Question: O=C1OCCN1c1ccc2[nH]nc(-c3cc4cccc(Cl)c4[nH]3)c2c1 [Example 14, 3-(3-(7-chloro-1H-indol-2-yl)-1H-indazol-5-yl)oxazolidin-2-one] was tested. Which inhibition at 0.2 µM (CaMKK2) did it give?
Answer: 71%

Question: For O=C1OCCN1c1ccc2[nH]nc(-c3cc4ccc(Cl)cc4[nH]3)c2c1 [Example 15, 3-(3-(6-chloro-1H-indol-2-yl)-1H-indazol-5-yl)oxazolidin-2-one], which inhibition at 0.2 µM (CaMKK2) is on record?
Answer: 85%

Question: O=C1OCCN1c1ccc2[nH]nc(-c3cc4c(Cl)cccc4[nH]3)c2c1 [Example 17, 3-(3-(4-chloro-1H-indol-2-yl)-1H-indazol-5-yl)oxazolidin-2-one] was tested. Which inhibition at 0.2 µM (CaMKK2) did it give?
Answer: 71%

Question: COc1cccc2cc(-c3n[nH]c4ccc(N5CCOC5=O)cc34)[nH]c12 [Example 18, 3-(3-(7-methoxy-1H-indol-2-yl)-1H-indazol-5-yl)oxazolidin-2-one] was tested. Which inhibition at 0.2 µM (CaMKK2) did it give?
Answer: 61%

Question: For COc1ccc2cc(-c3n[nH]c4ccc(N5CCOC5=O)cc34)[nH]c2c1 [Example 19, 3-(3-(6-methoxy-1H-indol-2-yl)-1H-indazol-5-yl)oxazolidin-2-one], which inhibition at 0.2 µM (CaMKK2) is on record?
Answer: 87%

Question: With COc1ccc2[nH]c(-c3n[nH]c4ccc(N5CCOC5=O)cc34)cc2c1 [Example 20, 3-(3-(5-methoxy-1H-indol-2-yl)-1H-indazol-5-yl)oxazolidin-2-one] as the molecule, how does the inhibition at 0.2 µM (CaMKK2) read?
Answer: 84%

Question: COc1cccc2[nH]c(-c3n[nH]c4ccc(N5CCOC5=O)cc34)cc12 [Example 21, 3-(3-(4-methoxy-1H-indol-2-yl)-1H-indazol-5-yl)oxazolidin-2-one] was tested. Which inhibition at 0.2 µM (CaMKK2) did it give?
Answer: 84%

Question: How did the “Biochemical Data CaMKK2, inh @ 0.2 μM” value (CaMKK2) turn out when O=C1OCCN1c1ccc2[nH]nc(-c3ccc[nH]3)c2c1 [Example 22, 3-(3-(1H-pyrrol-2-yl)-1H-indazol-5-yl)oxazolidin-2-one] was run?
Answer: 37% inh @ 0.2 μM

Question: What about the inhibition at 0.2 µM (CaMKK2) of the same molecule?
Answer: 37%

Question: And the “Biochemical Data CaMKK1, inh @ 0.2 μM” value (CaMKK1)?
Answer: <5% inh @ 0.2 μM

Question: O=C1OCCN1c1ccc2[nH]nc(-c3cccc(Cl)c3)c2c1 [Example 23, 3-(3-(3-chlorophenyl)-1H-indazol-5-yl)oxazolidin-2-one] was tested. Which “Biochemical Data CaMKK2, inh @ 0.2 μM” value (CaMKK2) did it give?
Answer: 44% inh @ 0.2 μM

Question: What about the inhibition at 0.2 µM (CaMKK2) of the same molecule?
Answer: 44%

Question: And the “Biochemical Data CaMKK1, inh @ 0.2 μM” value (CaMKK1)?
Answer: <5% inh @ 0.2 μM

Question: With O=C1OCCN1c1ccc2[nH]nc(-c3ccc4ccccc4c3)c2c1 [Example 25, 3-(3-(naphthalen-2-yl)-1H-indazol-5-yl)oxazolidin-2-one] as the molecule, how does the inhibition at 0.2 µM (CaMKK2) read?
Answer: 67%

Question: For O=C1OCCN1c1ccc2[nH]nc(-c3ccc(-c4ccccc4)cc3)c2c1 [Example 27, 3-(3-([1,1′-biphenyl]-4-yl)-1H-indazol-5-yl)oxazolidin-2-one], which inhibition at 0.2 µM (CaMKK2) is on record?
Answer: 59%

Question: Which inhibition at 0.2 µM (CaMKK2) does the source give for O=C1OCCN1c1ccc2[nH]nc(-c3ccc4cc[nH]c4c3)c2c1 [Example 28, 3-(3-(1H-indol-6-yl)-1H-indazol-5-yl)oxazolidin-2-one] here?
Answer: 44%

Question: CN(C)CCNC(=O)c1cccc(/C=C/c2n[nH]c3ccc(N4CCOC4=O)cc23)c1 [Example 29, (E)-N-(2-(dimethylamino)ethyl)-3-(2-(5-(2-oxooxazolidin-3-yl)-1H-indazol-3-yl)vinyl)benzamide] was tested. Which inhibition at 0.2 µM (CaMKK2) did it give?
Answer: 63%

Question: CN(C)CCNC(=O)c1ccc(/C=C/c2n[nH]c3ccc(N4CCOC4=O)cc23)cc1 [Example 30, (E)-N-(2-(dimethylamino)ethyl)-4-(2-(5-(2-oxooxazolidin-3-yl)-1H-indazol-3-yl)vinyl)benzamide] was tested. Which inhibition at 0.2 µM (CaMKK2) did it give?
Answer: 75%

Question: How did the inhibition at 0.2 µM (CaMKK2) turn out when O=S1(=O)CCCN1c1ccc2[nH]nc(-c3cc4ccccc4[nH]3)c2c1 [Example 32, 2-(3-(1H-indol-2-yl)-1H-indazol-5-yl)isothiazolidine 1,1-dioxide] was run?
Answer: 84%

Question: C[C@H]1COC(=O)N1c1ccc2[nH]nc(-c3cc4ccccc4[nH]3)c2c1 [Example 33, (S)-3-(3-(1H-indol-2-yl)-1H-indazol-5-yl)-4-methyloxazolidin-2-one] was tested. Which inhibition at 0.2 µM (CaMKK2) did it give?
Answer: 90%

Question: Which inhibition at 0.2 µM (CaMKK2) does the source give for C[C@@H]1COC(=O)N1c1ccc2[nH]nc(-c3cc4ccccc4[nH]3)c2c1 [Example 34, (R)-3-(3-(1H-indol-2-yl)-1H-indazol-5-yl)-4-methyloxazolidin-2-one] here?
Answer: 73%

Question: For O=C1OC[C@H](CO)N1c1ccc2[nH]nc(-c3cc4ccccc4[nH]3)c2c1 [Example 35, (S)-3-(3-(1H-indol-2-yl)-1H-indazol-5-yl)-4-(hydroxymethyl)oxazolidin-2-one], which inhibition at 0.2 µM (CaMKK2) is on record?
Answer: 68%

Question: Which inhibition at 0.2 µM (CaMKK2) does the source give for O=C1OC[C@@H](CO)N1c1ccc2[nH]nc(-c3cc4ccccc4[nH]3)c2c1 [Example 36, (R)-3-(3-(1H-indol-2-yl)-1H-indazol-5-yl)-4-(hydroxymethyl)oxazolidin-2-one] here?
Answer: 57%

Question: With O=C1OC[C@H](c2ccccc2)N1c1ccc2[nH]nc(-c3cc4ccccc4[nH]3)c2c1 [Example 37, (S)-3-(3-(1H-indol-2-yl)-1H-indazol-5-yl)-4-phenyloxazolidin-2-one] as the molecule, how does the inhibition at 0.2 µM (CaMKK2) read?
Answer: 74%

Question: Which inhibition at 0.2 µM (CaMKK2) does the source give for O=C1OC[C@@H](c2ccccc2)N1c1ccc2[nH]nc(-c3cc4ccccc4[nH]3)c2c1 [Example 38, (R)-3-(3-(1H-indol-2-yl)-1H-indazol-5-yl)-4-phenyloxazolidin-2-one] here?
Answer: 50%

Question: CC(C)[C@H]1COC(=O)N1c1ccc2[nH]nc(-c3cc4ccccc4[nH]3)c2c1 [Example 39, (S)-3-(3-(1H-indol-2-yl)-1H-indazol-5-yl)-4-isopropyloxazolidin-2-one] was tested. Which inhibition at 0.2 µM (CaMKK2) did it give?
Answer: 72%

Question: With O=C1CCCN1c1ccc2[nH]nc(-c3cc4ccccc4[nH]3)c2c1 [Example 42, 1-(3-(1H-indol-2-yl)-1H-indazol-5-yl)pyrrolidin-2-one] as the molecule, how does the inhibition at 0.2 µM (CaMKK2) read?
Answer: 56%

Question: Which inhibition at 0.2 µM (CaMKK2) does the source give for COC(=O)[C@@H]1CCC(=O)N1c1ccc2[nH]nc(-c3cc4ccccc4[nH]3)c2c1 [Example 43, methyl (S)-1-(3-(1H-indol-2-yl)-1H-indazol-5-yl)-5-oxopyrrolidine-2-carboxylate] here?
Answer: 38%

Question: How did the inhibition at 0.2 µM (CaMKK2) turn out when O=C(O)[C@@H]1CCC(=O)N1c1ccc2[nH]nc(-c3cc4ccccc4[nH]3)c2c1 [Example 44, (S)-1-(3-(1H-indol-2-yl)-1H-indazol-5-yl)-5-oxopyrrolidine-2-carboxylic acid] was run?
Answer: 78%
